Laboratory results as given in US20100192451A1, “MOSQUITO ATTRACTANT COMPOSITIONS AND METHODS” (priority 2008, published 2010).

Key:
gravid Ae. aegypti [1] = assay: Egg-laying (contact-mediated) binary choice bioassay; assay type: in vivo, Aedes aegypti; conditions: for induction of egg laying by synthetic compounds: 1, 10 and 100 ng in 30 mL water
Procedure: Modifications of the olfactory- and contact-mediated bioassays previously described (Trexler J D, Apperson C S, Schal C (1998) J Med Entomol 35:967-976) were used to measure the response of gravid mosquitoes to plant infusions (or bacterial compounds). Briefly, two 125-mL polypropylene cups (test and control) were placed randomly in diagonal corners of a Plexiglas cage (30×30×30 cm) that was fitted with a stockinet cloth sleeve (AlbaHealth, Rockwood, Tenn.). Each cup was filled with 30 mL of either test or control solution. White paper sleeves were placed around each bioassay cup to mask visual cues presented by darkly colored leaf infusions. Adults had ad libitum access to water contained in a polypropylene cup that was fitted with a lid with a cotton wick protruding through a hole in the lid. For egg-laying bioassays, either one or five gravid females were released in each replicate cage. Cages were placed randomly on racks in a room where environmental conditions were the same as in the insectary. After a 24 h exposure period, eggs laid on the surface of the water in the test and control cups were counted. In olfactory bioassays, 10 gravid females were released in each bioassay cage. A circular metal wire-mesh screen covered with insect glue (Tanglefoot; Tanglefoot Co.) was inserted in each cup on top of an insert cut from a 120-mL polypropylene cup. Sticky screens were placed above test and control media, 2.5 cm below the lip of each cup. The mesh size of the metal screen prevented females from entering without landing on the screen. Therefore, positive or negative responses to the test infusions were measured by the numbers of females trapped during a 24 h exposure period on the sticky screen in the test and control cups.
For each replicate bioassay cage, the numbers of eggs laid in the test and control cups were converted to the proportion of the total number of eggs laid. The proportions were subjected to an arcsin√x transformation to achieve approximate normality. A one-tailed paired t test was used to determine whether differences in the mean transformed proportion of eggs deposited in test and control cups were statistically significant.
Synthetic compounds were bioassayed by placing hexane solutions on the surface of sterile distilled water; water in control cups was treated with hexane alone. The hexane was evaporated in a fume hood before bioassays commenced. Each bioassay was with a single female and lasted 72 h.

gravid Ae. aegypti [2] = assay: as above; assay type: in vivo, Aedes aegypti; conditions: for Eggs per assay: five females per assay, 24-h
[3] = dose 1 ng in 30 mL water, single female, 72 h
[4] = dose 10 ng in 30 mL water, single female, 72 h
[5] = dose 10 ng, single female, 72 h
[6] = dose 100 ng in 30 mL water, single female, 72 h
[7] = dose 100 ng, single female, 72 h
[8] = dose 0.01 mg, single female, 72 h
[9] = dose 0.1 mg, single female, 72 h
[10] = dose 1.0 mg, single female, 72 h
[11] = 1 ng, five females, 24 h assays
[12] = dose 0.01 ng, five females per assay, 24-h
[13] = dose 0.1 ng, five females per assay, 24-h
[14] = dose 1.0 ng, five females per assay, 24-h

## CCCCCCCCCC(=O)O [Decanoic acid]
Gravid Ae. aegypti [1]; [3]
  Treatment, % (eggs in treatment cup): 43.7%
Gravid Ae. aegypti [1]; dose 1 ng, single female, 72 h
  Eggs per assay: 60.0 ± 5.6
Gravid Ae. aegypti [1]; [4]
  Treatment, % (eggs in treatment cup): 52.2%
Gravid Ae. aegypti [1]; [5]
  Eggs per assay: 61.3 ± 5.0
Gravid Ae. aegypti [1]; [6]
  Treatment, % (eggs in treatment cup): 45.8%
Gravid Ae. aegypti [1]; [7]
  Eggs per assay: 67.0 ± 7.0

## CCCCCCCCCCCC(=O)O [Dodecanoic acid]
Gravid Ae. aegypti [1]; [3]
  Treatment, % (eggs in treatment cup): 47.0%
Gravid Ae. aegypti [1]; dose 1 ng, single female, 72 h
  Eggs per assay: 67.3 ± 4.0
Gravid Ae. aegypti [1]; [4]
  Treatment, % (eggs in treatment cup): 43.4%
Gravid Ae. aegypti [1]; [5]
  Eggs per assay: 66.3 ± 3.1
Gravid Ae. aegypti [1]; [6]
  Treatment, % (eggs in treatment cup): 47.6%
Gravid Ae. aegypti [1]; [7]
  Eggs per assay: 63.8 ± 3.4
Gravid Ae. aegypti [1]; [8]
  Eggs per assay: 66.5 ± 4.2
  Treatment, % (eggs in treatment cup): 52.2%
Gravid Ae. aegypti [1]; [9]
  Eggs per assay: 64.4 ± 2.9
  Treatment, % (eggs in treatment cup): 45.8%
Gravid Ae. aegypti [1]; [10]
  Eggs per assay: 60.2 ± 2.8
  Treatment, % (eggs in treatment cup): 42.2%

## CCCCCCCCCCCCCCCC(=O)OC [Hexadecanoic acid, methyl ester]
Gravid Ae. aegypti [1]; [3]
  Treatment, % (eggs in treatment cup): 34.7%
Gravid Ae. aegypti [1]; dose 1 ng, single female, 72 h
  Eggs per assay: 51.0 ± 3.5
Gravid Ae. aegypti [1]; [4]
  Treatment, % (eggs in treatment cup): 59.1%
Gravid Ae. aegypti [1]; [5]
  Eggs per assay: 51.3 ± 3.0
Gravid Ae. aegypti [1]; [6]
  Treatment, % (eggs in treatment cup): 60.4%
Gravid Ae. aegypti [1]; [7]
  Eggs per assay: 58.6 ± 3.8

## CCCCCCCCCCCCCCCC(=O)O [Hexadecanoic acid]
Gravid Ae. aegypti [1]; [3]
  Treatment, % (eggs in treatment cup): 53.4%
Gravid Ae. aegypti [1]; dose 1 ng, single female, 72 h
  Eggs per assay: 63.7 ± 4.2
Gravid Ae. aegypti [1]; [4]
  Treatment, % (eggs in treatment cup): 43.2%
Gravid Ae. aegypti [1]; [5]
  Eggs per assay: 63.5 ± 4.9
Gravid Ae. aegypti [1]; [6]
  Treatment, % (eggs in treatment cup): 38.2%
Gravid Ae. aegypti [1]; [7]
  Eggs per assay: 71.8 ± 4.8

## CCCCCCCCC(=O)O [Nonanoic acid]
Gravid Ae. aegypti [1]; single female, 72 h
  induction of egg laying by synthetic compounds: highly effective at inducing egg laying
Gravid Ae. aegypti [1]; [3]
  Treatment, % (eggs in treatment cup): 38.6%
Gravid Ae. aegypti [1]; dose 1 ng, single female, 72 h
  Eggs per assay: 70.9 ± 4.0
Gravid Ae. aegypti [1]; [4]
  Treatment, % (eggs in treatment cup): 58.3%
Gravid Ae. aegypti [1]; [5]
  Eggs per assay: 74.3 ± 6.1
Gravid Ae. aegypti [1]; [6]
  Treatment, % (eggs in treatment cup): 69.1%
Gravid Ae. aegypti [1]; [7]
  Eggs per assay: 80.0 ± 3.3

## CCCCCCCCCCCCCCCCCC(=O)O [Octadecanoic acid]
Gravid Ae. aegypti [1]; [3]
  Treatment, % (eggs in treatment cup): 55.1%
Gravid Ae. aegypti [1]; dose 1 ng, single female, 72 h
  Eggs per assay: 71.3 ± 3.3
Gravid Ae. aegypti [1]; [4]
  Treatment, % (eggs in treatment cup): 46.4%
Gravid Ae. aegypti [1]; [5]
  Eggs per assay: 69.0 ± 3.6
Gravid Ae. aegypti [1]; [6]
  Treatment, % (eggs in treatment cup): 58.4%
Gravid Ae. aegypti [1]; [7]
  Eggs per assay: 64.8 ± 4.8

## CCCCCCCCCCCCCC(=O)OC [Tetradecanoic acid, methyl ester]
Gravid Ae. aegypti [1]; single female, 72 h
  induction of egg laying by synthetic compounds: highly effective at inducing egg laying
Gravid Ae. aegypti [1]; [3]
  Treatment, % (eggs in treatment cup): 55.0%
Gravid Ae. aegypti [1]; dose 1 ng, single female, 72 h
  Eggs per assay: 68.3 ± 5.4
Gravid Ae. aegypti [1]; [4]
  Treatment, % (eggs in treatment cup): 70.2%
Gravid Ae. aegypti [1]; [5]
  Eggs per assay: 64.0 ± 7.1
Gravid Ae. aegypti [1]; [6]
  Treatment, % (eggs in treatment cup): 51.0%
Gravid Ae. aegypti [1]; [7]
  Eggs per assay: 70.6 ± 6.0

## CCCCCCCCCCCCCC(=O)O [Tetradecanoic acid]
Gravid Ae. aegypti [1]; [11]
  eggs per female in 24 h: 43.4±3.9
Gravid Ae. aegypti [1]; 10 ng, single female, 72 h
  diversion of oviposition to treated water: diverted the greatest amount of oviposition to the treated water
Gravid Ae. aegypti [1]; single female, 72 h
  induction of egg laying by synthetic compounds: highly effective at inducing egg laying
Gravid Ae. aegypti [1]; [12]
  Eggs per assay: 318.5 ± 14.4
  Treatment, % (eggs in treatment cup): 52.3%
Gravid Ae. aegypti [1]; [13]
  Eggs per assay: 232.1 ± 22.3
  Treatment, % (eggs in treatment cup): 57.8%
Gravid Ae. aegypti [1]; [3]
  Treatment, % (eggs in treatment cup): 45.4%
Gravid Ae. aegypti [1]; [14]
  Eggs per assay: 216.8 ± 19.4
  Treatment, % (eggs in treatment cup): 76.9%
Gravid Ae. aegypti [1]; dose 1 ng, single female, 72 h
  Eggs per assay: 79.6 ± 2.7
Gravid Ae. aegypti [1]; [4]
  Treatment, % (eggs in treatment cup): 81.0%
Gravid Ae. aegypti [1]; dose 10 ng, five females per assay, 24-h
  Treatment, % (eggs in treatment cup): 57.9%
Gravid Ae. aegypti [1]; [5]
  Eggs per assay: 87.7 ± 5.1
Gravid Ae. aegypti [1]; [6]
  Treatment, % (eggs in treatment cup): 62.1%
Gravid Ae. aegypti [1]; dose 100 ng, five females per assay, 24-h
  Treatment, % (eggs in treatment cup): 38.7%
Gravid Ae. aegypti [1]; [7]
  Eggs per assay: 80.2 ± 5.2
Gravid Ae. aegypti [2]; [11]
  oviposition stimulation: highly stimulatory
Gravid Ae. aegypti [2]; dose 10 ng
  Eggs per assay: 196.4 ± 23.2
Gravid Ae. aegypti [2]; dose 100 ng
  Eggs per assay: 260.4 ± 30.9
